Source: patent publication US20260207649A1, “LSD1 INHIBITOR AND PRMT6 INHIBITOR FOR USE IN THE TREATMENT OF A DISEASE ASSOCIATED WITH GAIN-OF-FUNCTION OF ANDROGEN RECEPTOR (AR) AND/OR WITH OVEREXPRESSION OF AN AR COACTIVATOR” (FONDAZIONE TELETHON ETS(30%), priority 2022, published 2026)
Where two headings read alike, the source gives them in different places.

Assays:
polyQ-expanded AR = experiment: Transcriptional (ARE-luciferase) assay in HEK293T cells expressing polyQ-expanded AR; assay type: cell-based, human; conditions: AR65Q, DHT 10 nM, 16 h; for polyQ-expanded AR transactivation induced by DHT: mock-transfected, inhibitor 10 μM
Experimental: (§1) Cell Cultures, Transfection, and Transduction MN1^9 and HEK293T (ATCC) cells were cultured and plated in DMEM complete medium [Dulbecco's Modified Eagle Medium supplemented with 10% fetal bovine serum (FBS), 1% penicillin/streptomycin (pen/strep), and 1% L-glutamine] and LNCaP cells in RPMI complete medium (Gibco Roswell Park Memorial Institute supplemented with 10% FBS, 1% penicillin/streptomycin, and 1% L-glutamine). C2C12 cells were cultured and differentiated to myotubes. Cells were kept in a humidified incubator with 5% CO2 at 37° C. HEK293T cells were transfected with polyethyleneimine (PEI) linear MW 25,000 Da (Sigma-Aldrich) according to well dimensions. DNA: PEI (0.5% v/v) ratio was 1:1. At 24 hours after the transfection the DMEM complete medium supplemented with 10% FBS was changed with DMEM supplemented with charcoal stripped FBS and cells were treated with vehicle (ethanol) or 10 nM DHT and harvested for the different analysis 24 h after the treatment. For the pharmacological inhibition, we treated cells with the LSD1 catalytic inhibitor tranylcypromine (TCP) and the PRMT inhibitor adenosine dialdehyde (AdOx) both at a final concentration of 10 μM, instead for the selective LSD1 inhibitor SP-2509, we used it at a final concentration of 100 nm. MN-1 cells were transfected with Lipofectamine 2000 according to manufacturer instructions (Thermo Fisher). MN1 and LNCaP cells were transiently transduced with lentiviruses (MOI 30) or transfected with 2 μg DNA using Lipofectamine 2000 CD Transfection Reagent (ThermoFisher Scientific, 12566014). The following day, positively transfected cells were selected with […] Blasticidin (PanReacApplichem, A3784,0025). After 24 hours of selection or at 48 hours post-transduction, cells were induced with 10 nM dihydrotestosterone (DHT) in DMEM or RPMI medium supplemented with 10% charcoal-stripped FBS, 1% pen/strep, and 1% L-glutamine. The SBMA iPSCs were derived and differentiated. iPSCs were maintained on Matrigel (Corning, 354277) coated tissue culture dishes in E8 Flex medium (Thermo Fisher, A2858501). […]

normal AR = experiment: Transcriptional (ARE-luciferase) assay in HEK293T cells expressing normal AR; assay type: cell-based, human; conditions: AR24Q, mock-transfected, DHT 10 nM, 16 h, inhibitor 10 μM
Experimental: Cell Cultures, Transfection, and Transduction MN1^9 and HEK293T (ATCC) cells were cultured and plated in DMEM complete medium [Dulbecco's Modified Eagle Medium supplemented with 10% fetal bovine serum (FBS), 1% penicillin/streptomycin (pen/strep), and 1% L-glutamine] and LNCaP cells in RPMI complete medium (Gibco Roswell Park Memorial Institute supplemented with 10% FBS, 1% penicillin/streptomycin, and 1% L-glutamine). C2C12 cells were cultured and differentiated to myotubes. Cells were kept in a humidified incubator with 5% CO2 at 37° C. HEK293T cells were transfected with polyethyleneimine (PEI) linear MW 25,000 Da (Sigma-Aldrich) according to well dimensions. DNA: PEI (0.5% v/v) ratio was 1:1. At 24 hours after the transfection the DMEM complete medium supplemented with 10% FBS was changed with DMEM supplemented with charcoal stripped FBS and cells were treated with vehicle (ethanol) or 10 nM DHT and harvested for the different analysis 24 h after the treatment. […] MN-1 cells were transfected with Lipofectamine 2000 according to manufacturer instructions (Thermo Fisher). […] The following day, positively transfected cells were selected with […] Blasticidin (PanReacApplichem, A3784,0025). […]

AR = experiment: Transcriptional assay in HEK293T cells expressing AR24Q or AR65Q, with LSD1/PRMT6 overexpression or CRISPR silencing; assay type: cell-based, human; conditions: 16 h, inhibitor 10 μM; for effect of overexpression of LSD1 on AR transactivation: AR24Q and AR65Q with LSD1, DHT 10 nM; for effect of overexpression of PRMT6 on AR transactivation: AR24Q and AR65Q with PRMT6, DHT 10 nM
Experimental: Cell Cultures, Transfection, and Transduction MN1^9 and HEK293T (ATCC) cells were cultured and plated in DMEM complete medium [Dulbecco's Modified Eagle Medium supplemented with 10% fetal bovine serum (FBS), 1% penicillin/streptomycin (pen/strep), and 1% L-glutamine] and LNCaP cells in RPMI complete medium (Gibco Roswell Park Memorial Institute supplemented with 10% FBS, 1% penicillin/streptomycin, and 1% L-glutamine). C2C12 cells were cultured and differentiated to myotubes. Cells were kept in a humidified incubator with 5% CO2 at 37° C. HEK293T cells were transfected with polyethyleneimine (PEI) linear MW 25,000 Da (Sigma-Aldrich) according to well dimensions. DNA: PEI (0.5% v/v) ratio was 1:1. At 24 hours after the transfection the DMEM complete medium supplemented with 10% FBS was changed with DMEM supplemented with charcoal stripped FBS and cells were treated with vehicle (ethanol) or 10 nM DHT and harvested for the different analysis 24 h after the treatment. […] MN-1 cells were transfected with Lipofectamine 2000 according to manufacturer instructions (Thermo Fisher). […] The following day, positively transfected cells were selected with […] Blasticidin (PanReacApplichem, A3784,0025). After 24 hours of selection or at 48 hours post-transduction, cells were induced with 10 nM dihydrotestosterone (DHT) in DMEM or RPMI medium supplemented with 10% charcoal-stripped FBS, 1% pen/strep, and 1% L-glutamine. […] For differentiation stably transfected iPSCs were induced with Neural Induction Medium (NIM) containing […] doxycycline and 10 nM R1881. After 48 hours of doxycycline treatment, motor neurons were dissociated with accutase to single cells and re-plated on PDL/Laminin coated surfaces in Neural Differentiation Medium (NDM) containing […] doxycycline and 10 nM R1881. On day 4, half of the cell culture medium was removed and replaced by Neuron Medium (NM) containing 10 nM R1881.
Luciferase assays were performed. In brief, HEK293T cells were transfected with vectors expressing non-expanded and polyglutamine-expanded AR together with vectors expressing the luciferase reporter gene under the control of a canonical androgen responsive element (ARE-Luc). To normalize data for transfection efficiency, the cells express Renilla reporter gene under the control of the timidine kinase (TK-Ren) transfected with ARE-Luc in a ratio of 1:10. Cells are treated with vehicle and DHT for 16 h and then processed for luciferase assay, as manufacturer's instructions (Promega).

AR100Q mice = conditions: three times a week, from week 4
Experimental: A randomized cohort of male transgenic AR100Q mice and WT siblings was assigned to either control or treated group.
Phenelzine was administered at a dose of 30 mg/Kg in drinking water; three times a week; TCP was administered at a dose of 6 mg/Kg intraperitoneal, three times a week.
Mice were randomized and the operators were blind for genotype and treatment. The phenotype was analyzed by looking at muscle strength with grip strength test.

AR24Q (human) = AR24Q (human) (UniProt P10275); experiment: cell-based or functional assay
AR65Q (human) = AR65Q (human) (UniProt P10275); experiment: cell-based or functional assay
Prmt6 = experiment: Western blots of PRMT6 in MN1 cells transfected with amiR vectors; assay type: cell-based, mouse
Experimental: as §1, with “L-glutamine.” for “L-glutamine. The SBMA iPSCs were derived and differentiated. iPSCs were maintained on Matrigel (Corning, 354277) coated tissue culture dishes in E8 Flex medium (Thermo Fisher, A2858501).”
(§2) The protein concentration was measured using the bicinchoninic acid (BCA) assay method (Pierce™ BCA® Protein Assay, Thermo Scientific). […]

Lsd1 = experiment: Western blots of LSD1 in MN1 cells transfected with amiR vectors; assay type: cell-based, mouse
Experimental: as §1, with “L-glutamine.” for “L-glutamine. The SBMA iPSCs were derived and differentiated. iPSCs were maintained on Matrigel (Corning, 354277) coated tissue culture dishes in E8 Flex medium (Thermo Fisher, A2858501).”
as §2

Question: Which “polyQ-expanded AR transactivation induced by DHT” value (polyQ-expanded AR) does the source give for `N[C@@H]1C[C@H]1c1ccccc1` (racemic) [TCP, tranylcypromine] here?
Answer: reduced

Question: What about the “normal AR transactivation induced by DHT” value (normal AR) of the same molecule?
Answer: reduced

Question: And the “effect of overexpression of LSD1 on AR transactivation” value (AR)?
Answer: reduced

Question: And the “effect of overexpression of PRMT6 on AR transactivation” value (AR)?
Answer: attenuated

Question: And the “phenotype of AR100Q mice (grip strength normalized to body weight)” value (AR100Q mice; 6 mg/Kg intraperitoneal)?
Answer: ameliorated

Question: Which “polyQ-expanded AR transactivation induced by DHT” value (polyQ-expanded AR) does the source give for `Nc1ncnc2c1ncn2C(C=O)OC(C=O)CO` (stereo not shown) [AdOx, adenosine dialdehyde] here?
Answer: reduced

Question: What about the “normal AR transactivation induced by DHT” value (normal AR) of the same molecule?
Answer: reduced

Question: And the “effect of overexpression of LSD1 on AR transactivation” value (AR)?
Answer: reduced

Question: And the “effect of overexpression of PRMT6 on AR transactivation” value (AR)?
Answer: attenuated

Question: `NNCCc1ccccc1` [Phenelzine, phenelzine] was tested. Which “phenotype of AR100Q mice (grip strength normalized to body weight)” value (AR100Q mice; 30 mg/Kg in drinking water) did it give?
Answer: ameliorated

Question: With `C/C(=N\NC(=O)c1cccc(S(=O)(=O)N2CCOCC2)c1)c1cc(Cl)ccc1O` [SP-2509] as the molecule, how does the “polyQ-expanded AR transactivation” value (polyQ-expanded AR; inhibitor 100 nM) read?
Answer: did not modify

Question: Which AR transactivation (transcriptional assay, HEK293T cells) (AR24Q (human)) does the source give for “protein arginine methyltransferase 6 (PRMT6) (from UniProt Q96LA8 1-375)” here?
Answer: 3.1 fold

Question: What about the AR transactivation (transcriptional assay, HEK293T cells) (AR65Q (human)) of the same molecule?
Answer: 3.4 fold

B1: amiR-Prmt6 #2: artificial miRNA targeting mouse Prmt6, oligos SEQ ID NO: 141, 142 (nucleic acid)
chain 1: TGCTGCGGAGTAGCACTCGTAGTACAGTTTTGGCCACTGACTGACTGTACTACGTGCTACTCCG
chain 2: CCTGCGGAGTAGCACGTAGTACAGTCAGTCAGTGGCCAAAACTGTACTACGAGTGCTACTCCGC
modifications: expressed or natural sequence
Question: For B1, which “silencing of Prmt6” value (Prmt6) is on record?
Answer: ~ 50%

B2: amiR-Prmt6 #6: artificial miRNA targeting mouse Prmt6, oligos SEQ ID NO: 149, 150 (nucleic acid)
chain 1: TGCTGAATCAGACCATGTTGCCTTTCGTTTTGGCCACTGACTGACGAAAGGCAATGGTCTGATT
chain 2: CCTGAATCAGACCATTGCCTTTCGTCAGTCAGTGGCCAAAACGAAAGGCAACATGGTCTGATTC
modifications: expressed or natural sequence
Question: With B2 as the molecule, how does the “silencing of Prmt6” value (Prmt6) read?
Answer: ~ 50%

B3: amiR-Lsd1 #3: artificial miRNA targeting mouse Lsd1, oligos SEQ ID NO: 234, 235 (nucleic acid)
chain 1: TGCTGTTGATGAGAGGTATACATCACGTTTTGGCCACTGACTGACGTGATGTACCTCTCATCAA
chain 2: CCTGTTGATGAGAGGTACATCACGTCAGTCAGTGGCCAAAACGTGATGTATACCTCTCATCAAC
modifications: expressed or natural sequence
Question: With B3 as the molecule, how does the “silencing of Lsd1 expression” value (Lsd1) read?
Answer: 70%

B4: amiR-Lsd1 #1: artificial miRNA targeting mouse Lsd1, oligos SEQ ID NO: 153, 154 (nucleic acid)
chain 1: TGCTGTTTCTCTGTATTCTACCTTGGGTTTTGGCCACTGACTGACCCAAGGTAATACAGAGAAA
chain 2: CCTGTTTCTCTGTATTACCTTGGGTCAGTCAGTGGCCAAAACCCAAGGTAGAATACAGAGAAAC
modifications: expressed or natural sequence
Question: How did the “silencing of Lsd1 expression” value (Lsd1) turn out when B4 was run?
Answer: 50%

B5: amiR-Lsd1 #2: artificial miRNA targeting mouse Lsd1, oligos SEQ ID NO: 155, 156 (nucleic acid)
chain 1: TGCTGTTTACTTGTTTGCTGACGACAGTTTTGGCCACTGACTGACTGTCGTCAAAACAAGTAAA
chain 2: CCTGTTTACTTGTTTTGACGACAGTCAGTCAGTGGCCAAAACTGTCGTCAGCAAACAAGTAAAC
modifications: expressed or natural sequence
Question: With B5 as the molecule, how does the “silencing of Lsd1 expression” value (Lsd1) read?
Answer: 70%

B6: amiR-Prmt6 #7: artificial miRNA targeting mouse Prmt6, oligos SEQ ID NO: 151, 152 (nucleic acid)
chain 1: TGCTGTATTAGATTAGAGTGCTCGCGGTTTTGGCCACTGACTGACCGCGAGCACTAATCTAATA
chain 2: CCTGTATTAGATTAGTGCTCGCGGTCAGTCAGTGGCCAAAACCGCGAGCACTCTAATCTAATAC
modifications: expressed or natural sequence
Question: B6 was tested. Which “silencing of Prmt6” value (Prmt6) did it give?
Answer: ~ 50%
